Consider 2 compounds from patent publication US20090130064A1, “DIFFERENTIATION OF STEM CELLS AND STABILIZATION OF PHENOTYPICAL PROPERTIES OF PRIMARY CELLS” (priority 2004, published 2009).

Some results are limits rather than exact numbers.

The subject of data set [1] is freshly isolated rat hepatocytes. The data set is described as follows: Biotransformation in suspensions of freshly isolated rat hepatocytes. Type of data set: in vitro ADME. On the procedure: Male outbred Sprague Dawley rats (Iffa Credo, Brussels, Belgium) weighing 200-300 g were used. The animals were kept under controlled environmental conditions (12 h light-dark cycle) and had free access to food (Animalabo A 04) and water. After intraperitoneal injection of Nembutal® (0.1 ml/kg body weight), hepatocytes were isolated as described by De Smet et al.. Cell integrity was evaluated by trypan blue exclusion, and was 88±3% (n=20). 5, 25 and 50 μM of both compounds were incubated with 2×10^6 hepatocytes/ml (final volume 3 ml) in HEPES buffer (pH 7.65, 37° C.) up to 6 h. Control samples were obtained by boiling the hepatocyte suspension for 2 min prior to the addition of substrate; cell-free controls contained the substrate in the incubation buffer without hepatocytes. At selected time intervals, 1.0 ml aliquots were submersed in liquid nitrogen to stop the biotransformation reaction.
After centrifugation (2000 g, 45 min, 4° C.) of the diluted microsomal samples, the clear supernatant was injected onto a HPLC column. Samples from incubations with hepatocytes were thawed on ice and centrifugated (120 g, 2 min). The supernatants (extracellular) were subjected to solid phase extraction (Waters Oasis™ HLB cartridges, Waters Corporation, Milford, Mass., USA), while cell pellets (intracellular) were ultrasonicated in 1 ml methanol and centrifugated (2000 g, 30 min, 4° C.). Separations ([…]) were performed by reversed-phase HPLC (Kontron chromatographic system, Milan, Italy) on a Discovery C18, 5 μm, 250×4.6 mm column (Supelco, Sigma-Aldrich, Bornem, Belgium). The mobile phase consisted of component A (0.1% (v/v) aqueous trifluoroacetic acid) and component B (0.1% (v/v) trifluoroacetic acid in acetonitrile). A linear gradient from 3 to 80% (v/v) B was used over 30 min at a flow rate of 1.0 ml/min. […]

The test system of the next data set is p21. The experiment in a line: Western blotting of p21 in primary rat hepatocytes. The format is cell-based. The text has this: (§1) Male outbred Sprague-Dawley rats (200-300 g, Iffa Credo, Brussels, Belgium) were kept under controlled environmental conditions (12-hr light-dark cycle) and fed a standard diet (Animafabo A04, water ad libitum). Hepatocytes were isolated by a two-step collagenase perfusion as described (De Smet et al. In ‘Methods in Molecular Biology, Vol. 107: Cytochrome P450 Protocols’, Philips I R and Shephard E A, eds., pp 295-301, Humana Press, Totowa, 1998). Cell liability was >90% as determined by trypan blue exclusion. Cells (0.4×10^5 cells/cm^2) were plated in MEM/M199 (3:1), containing BSA (1 mg/ml), bovine insulin (10 μg/ml), L-glutamine (2 mM), FBS (10% v/v) and antibiotics (7.3 IU/ml benzyl penicillin, 50 μg/ml streptomycin sulphate, 50 μg/ml kanamycin monosulphstep and 10 μg/ml sodium ampicillin). Four hours after plating, serum-containing medium was removed and fresh serum-free medium was added to the cultures. Culture medium was refreshed daily. […]
(§2) Total cell extracts were prepared as described previously (Papeleu et al. J Hepatol 39: 374-382, 2003) and proteins (25 or 50 μg per lane) were separated electrophoretically by SDS-PAGE and electroblotted onto nitrocellulose membranes (Amersham Pharmacia Biotech, Buckinghamshire, UK). […] Proteins were detected using the ECL detection system (Amersham Pharmacia Biotech, Buckinghamshire, UK) according to the manufacturer's recommendations.
For orientation: In western blotting, separated proteins are transferred to a membrane and probed.

Data set [2] relates to primary rat hepatocytes. The data set is described as follows: Albumin secretion (ELISA) by primary rat hepatocyte cultures. Type of data set: cell-based. On the procedure: Medium samples were collected at 72 hours of culture and analyzed for their albumin content by an enzyme-linked immunosorbent assay (ELISA) as described (Dunn et al. Biotechnol Prog 7: 237-245, 1991) Cell morphology was analyzed by light microscopy (×100). Pictures were taken using an Optiphot Nikon Phase Contrast microscope (Cetec, Brussels, Belgium).
Medium samples were collected at 72 hours of culture and analyzed for their albumin content by an enzyme-linked immunosorbent assay (ELISA) as described (Dunn et al. Biotechnol Prog 7: 237-245, 1991).
(ELISA stands for enzyme-linked immunosorbent assay.)

The subject of a further data set is rat hepatocytes. The experiment in a line: LDH index (membrane damage) in rat hepatocyte suspensions. The format is cell-based. To be noted: concentrations up to 100 μM; 6 h.
The test system of data set [3] is primary rat hepatocytes. The experiment in a line: De novo protein synthesis by [3H]-leucine incorporation. The format is cell-based. The settings on record: co-treatment with EGF. On the procedure: De novo protein synthesis was determined by [^3H]-leucine incorporation. [^3H]-Leucine (2 μCi/ml final concentration) was added to the hepatocyte cultures 68 hours after plating. Four hours later, cells were washed twice with ice-cold PBS and lyzed in 40% cold trichloroacetic acid. After 2 additional washes in 10% cold trichloroacetic acid, the pellet was solubilized in NaOH (0.1N). The amount of [^3H]-leucine was subsequently measured by liquid scintillation.

The subject of another data set is cyclin D1. The experiment in a line: Western blotting of cyclin D1 in primary rat hepatocytes. The format is cell-based. To be noted: 50 μM; 72 hours.
Description: as §1, §2

With `CC(C=CC(=O)NO)=CC(C)C(=O)c1ccc(N(C)C)cc1` (stereo not drawn) [TSA], the “time to complete metabolism / full degradation” value in data set [1] (50 μM, 2×10^6 hepatocytes/ml) is listed as no more than 40 min. Besides, in the data set on p21 (1 μM TSA during liver perfusion and culture, 72 hours), the p21 accumulation entry is “complete absence of p21 accumulation”. Besides, in the data set with primary rat hepatocytes [2] (1 μM TSA in the collagenase perfusion solution), the “secretion of albumin versus cells isolated in absence of TSA” value is recorded as “significantly higher secretion of albumin”. In the data set on rat hepatocytes, the “cell viability (LDH leakage) of hepatocytes in suspension” value is “did not affect cell viability”.

As for `CN(C)c1ccc(C(=O)NCCCCC(=O)NO)cc1` [4-Me2N-BAVAH, 5-(4-dimethylaminobenzoyl)-aminovaleric acid hydroxamide], the “time to full degradation” value in data set [1] (50 μM, 2×10^6 hepatocytes/ml) is listed as “more than 3 h”. In addition, the “half-life in comparison to TSA” value in data set [1] (rat hepatocyte suspensions) was “longer half-life”. In the data set on p21 (50 μM 4-Me2N-BAVAH + EGF), the p21 expression entry was “completely inhibited”. In the data set with primary rat hepatocytes [2] (50 μM 4-Me2N-BAVAH from day 0), the “secretion of albumin into the culture medium compared with 1 μM TSA” value is on record as “significantly higher secretion of albumin”. The “increase in albumin secretion” value in the data set on primary rat hepatocytes [2] (50 μM, 72 hours, versus untreated EGF-stimulated hepatocytes) worked out at 2.44±0.29 fold. Further, in the data set with rat hepatocytes, the “cell viability (LDH leakage) of hepatocytes in suspension” value is “not toxic”. Moreover, the “de novo protein synthesis” value with primary rat hepatocytes [3] was “not further enhanced”. The “cyclin D1 protein accumulation upon growth factor stimulation” value in the data set with cyclin D1 is recorded as “completely failed to accumulate cyclin D1 protein”.
